Earlier results as cited in patent US7288243B2, “Aerosol drug inhibition of lung metastases” (Research Development Foundation, priority 2002, dated 2007).

Conditions: concurrent administration of cyclosporin; clinical studies

- Increase of bioavailability of paclitaxel administered orally: 9 fold
Compound: CC(=O)O[C@H]1C(=O)[C@@]2(C)[C@H]([C@H](OC(=O)c3ccccc3)[C@]3(O)C[C@H](OC(=O)[C@H](O)[C@@H](NC(=O)c4ccccc4)c4ccccc4)C(C)=C1C3(C)C)[C@]1(OC(C)=O)CO[C@@H]1C[C@@H]2O [paclitaxel]
